Measurements reported in ChEMBL document CHEMBL1149119, “Discovery of a potent and novel motilin agonist” (J Med Chem, 2004).
pEC50, pKi: −log10 of the molar value.

Legend:
Motilin receptor [1] = molecular target: T1, Motilin receptor (Homo sapiens, UniProt O43193); test: In vitro effective concentration towards human motilin receptor; type: functional
Motilin receptor [2] = molecular target: T1, Motilin receptor; test: In vitro binding affinity towards human motilin receptor

T1 sequence (O43193 whole entry): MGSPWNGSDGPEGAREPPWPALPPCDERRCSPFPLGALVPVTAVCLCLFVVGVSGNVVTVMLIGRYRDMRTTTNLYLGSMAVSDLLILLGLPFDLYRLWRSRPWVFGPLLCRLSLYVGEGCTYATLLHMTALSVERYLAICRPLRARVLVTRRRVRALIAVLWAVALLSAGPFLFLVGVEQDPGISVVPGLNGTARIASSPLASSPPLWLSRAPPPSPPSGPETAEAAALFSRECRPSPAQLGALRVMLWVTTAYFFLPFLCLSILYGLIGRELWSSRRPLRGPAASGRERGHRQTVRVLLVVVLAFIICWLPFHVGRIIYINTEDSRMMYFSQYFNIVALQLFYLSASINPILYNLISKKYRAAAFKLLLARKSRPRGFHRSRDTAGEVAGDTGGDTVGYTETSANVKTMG

Compound | pEC50 (Motilin receptor [1]) | pKi (Motilin receptor [2])
NC(=O)[C@@H](Cc1ccccc1)NC(=O)C1C=CC2(CCNCC2)n2c(=O)n(Cc3ccc4c(c3)OCO4)c(=O)n21 (stereo partly specified) | 5.38 | –
C[C@@H](NC(=O)C1C=CC2(CCNCC2)n2c(=O)n(Cc3ccc4c(c3)OCO4)c(=O)n21)C(N)=O (stereo partly specified) | < 5.00 | –
NC(=O)[C@H](CCc1ccccc1)NC(=O)C1C=CC2(CCNCC2)n2c(=O)n(Cc3ccc4c(c3)OCO4)c(=O)n21 (stereo in doubt; 1B) | 6.25 | 5.39
NC(=O)[C@H](CCc1ccccc1)NC(=O)C1C=CC2(CCNCC2)n2c(=O)n(Cc3ccc4c(c3)OCO4)c(=O)n21 (stereo in doubt; 1A) | < 5.00 | 5.24
NC(=O)[C@H](CCc1ccccc1)NC(=O)[C@H](CCc1ccccc1)NC(=O)C1CCC2(CCNCC2)n2c(=O)n(Cc3ccc4c(c3)OCO4)c(=O)n21 (stereo in doubt; 11) | 9.46 | 9.00
COC(=O)[C@@H](CCc1ccccc1)NC(=O)C1C=CC2(CCNCC2)n2c(=O)n(Cc3ccc4c(c3)OCO4)c(=O)n21 (stereo partly specified) | < 5.00 | < 5.00
NC(=O)[C@H](CCc1ccccc1)NC(=O)[C@H](CCc1ccccc1)NC(=O)C1CCC2(CCNCC2)n2c(=O)n(Cc3ccc4c(c3)OCO4)c(=O)n21 (stereo in doubt; 11A) | 10.33 | 9.15
NC(=O)[C@H](CCc1ccccc1)NC(=O)[C@H](CCc1ccccc1)NC(=O)C1C=CC2(CCNCC2)n2c(=O)n(Cc3ccc4c(c3)OCO4)c(=O)n21 (stereo partly specified) | 9.66 | 8.70
CC[C@H](C)[C@H](NC(=O)[C@@H]1CCCN1C(=O)[C@@H](NC(=O)[C@@H](N)Cc1ccccc1)C(C)C)C(=O)N[C@@H](Cc1ccccc1)C(=O)N[C@H](C(=O)N[C@@H](Cc1ccc(O)cc1)C(=O)NCC(=O)N[C@@H](CCC(=O)O)C(=O)N[C@@H](CC(C)C)C(=O)N[C@@H](CCC(N)=O)C(=O)N[C@@H](CCCNC(=N)N)C(=O)N[C@@H](CCSC)C(=O)N[C@@H](CCC(N)=O)C(=O)N[C@@H](CCC(=O)O)C(=O)N[C@@H](CCCCN)C(=O)N[C@@H](CCC(=O)O)C(=O)N[C@@H](CCCNC(=N)N)C(=O)N[C@@H](CC(N)=O)C(=O)N[C@@H](CCCCN)C(=O)NCC(=O)N[C@@H](CCC(N)=O)C(=O)O)[C@@H](C)O [MOTILIN] | 9.82 | 8.51
NC(=O)[C@H](Cc1ccccc1)NC(=O)C1C=CC2(CCNCC2)n2c(=O)n(Cc3ccc4c(c3)OCO4)c(=O)n21 (stereo partly specified) | < 5.00 | –
CC[C@H]1OC(=O)[C@H](C)[C@@H](O[C@H]2C[C@@](C)(OC)C[C@@H](C)O2)[C@H](C)[C@@H](O[C@@H]2O[C@H](C)C[C@H](N(C)CC)[C@H]2O)[C@@]2(C)CC(C)=C(O2)[C@H](C)[C@@H](O)[C@H]1C | 8.38 | 8.47
NC(=O)[C@@H](CCc1ccccc1)NC(=O)[C@@H](CCc1ccccc1)NC(=O)C1CCC2(CCNCC2)n2c(=O)n(Cc3ccc4c(c3)OCO4)c(=O)n21 (stereo partly specified) | 8.14 | 8.57
NC(=O)[C@H](CCc1ccccc1)NC(=O)C1C=CC2(CCNCC2)n2c(=O)n(Cc3ccc4c(c3)OCO4)c(=O)n21 (stereo in doubt; 13B) | < 5.00 | < 5.00
NC(=O)[C@@H](CCc1ccccc1)NC(=O)C1C=CC2(CCNCC2)n2c(=O)n(Cc3ccc4c(c3)OCO4)c(=O)n21 (stereo partly specified) | < 5.00 | < 5.00
C[C@H](NC(=O)C1C=CC2(CCNCC2)n2c(=O)n(Cc3ccc4c(c3)OCO4)c(=O)n21)C(N)=O (stereo partly specified) | < 5.00 | –
